Drawing on PubChem BioAssay AID504560 (Southern Research Specialized Biocontainment Screening …, 2011), this text covers IC50 for 13 compounds.

For the test, the system named is human PBMC HIV-1 CCR5-tropic replication, RT activity. Description: inhibitors of CCR5-tropic HIV-1 replication in PBMCs, dose response, cell-based, human PBMC, set 2 (AID 504560).
Regarding `COc1ccccc1Cn1c(O)cc2nn(-c3nc4ccccc4s3)c(=O)c-2c1C`, the IC50 (usually the concentration at which inhibition is half-maximal) was 5400 nM.

Regarding `Cc1c2c(=O)n(-c3nc4ccccc4s3)nc-2cc(O)n1Cc1ccccc1Cl`, the IC50 was 6310 nM.

For the compound `COc1ccc(Cn2c(O)cc3nn(-c4nc5ccccc5s4)c(=O)c-3c2C)cc1`, the IC50 is 2290 nM.

`Cc1c2c(=O)n(-c3nc4ccccc4s3)nc-2cc(O)n1Cc1ccncc1`: the IC50 is 1890 nM.

For `Cc1c2c(=O)n(-c3nc4ccccc4s3)nc-2cc(O)n1C1CC1`, the IC50 is 720 nM.

Turning to `COc1ccc(CCn2c(O)cc3nn(-c4nc5ccccc5s4)c(=O)c-3c2C)cc1`, the IC50 is 6110 nM.

For the compound `Cc1c2c(=O)n(-c3nc4ccccc4s3)nc-2cc(O)n1Cc1cccnc1`, the IC50 is 920 nM.

On to `Cc1c2c(=O)n(-c3nc4ccccc4s3)nc-2cc(O)n1Cc1cccs1`, for which the IC50 is 1970 nM.

Turning to `Cc1c2c(=O)n(-c3nc4ccccc4s3)nc-2cc(O)n1CCc1ccc(O)cc1`, the IC50 is 1510 nM.

Consider `Cc1c2c(=O)n(-c3nc4ccccc4s3)nc-2cc(O)n1CCC(C)C`, for which the IC50 is 5400 nM.

On to `Cc1c2c(=O)n(-c3nc4ccccc4s3)nc-2cc(O)n1CCc1cccs1`, for which the half-maximal inhibitory concentration (IC50) is 3470 nM.

Consider `Cc1c2c(=O)n(-c3nc4ccccc4s3)nc-2cc(O)n1Cc1ccccc1`, for which the IC50 is 2420 nM.

In the case of `Cc1c2c(=O)n(-c3nc4ccccc4s3)nc-2cc(O)n1Cc1ccc(F)cc1`, the half-inhibitory concentration (IC50) was 3140 nM.
